What all share (assay): DTP human tumour cell line panel, 48 h
Experiment [1] relates to DLD-1 colon.
Experiment [2] relates to DMS 273 small cell lung.
The subject of experiment [3] is KM20L2 colon.
Experiment [4] concerns LOX IMVI melanoma.
The test system of experiment [5] is LXFL 529 NSCLC.
Experiment [6] concerns M19-MEL melanoma.
Experiment [7] relates to MDA-MB-231 breast.
Experiment [8] relates to NCI-H460 lung.
Experiment [9] relates to SNB-78 CNS.
Experiment [10] relates to SR leukemia.
For experiment [11], the system named is ACHN renal.
Experiment [12] has as its system BT-549 breast.
Experiment [13] relates to HCT-15 colon.
Experiment [14] relates to HOP-92 NSCLC.
In experiment [15] the test system is MDA-MB-435.
Experiment [16] deals with MOLT-4 leukemia.
In experiment [17] the test system is NCI-H23 lung.
Experiment [18] relates to NCI-H522 lung.
The subject of experiment [19] is NCI/ADR-RES ovarian.
Experiment [20] concerns SK-MEL-2 melanoma.

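Interpolation was linear, between the two tested concentrations surrounding the appropriate level; five concentrations were tested over 48 hours in 96-well plates. TGI: concentration producing complete growth inhibition.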 Some results are limits rather than exact numbers.

Usually TGI stands for the concentration at which net growth stops. In the case of `COc1ccc2nc3ccccc3c(NCCCCCCN(CCCl)CCCl)c2c1`, the TGI was 2.2 µM in experiment [1]; 0.206 µM in [2]; 2.07 µM in [3]; 0.0394 µM in experiment [4]; 1.72 µM in experiment [5]; 5.12 µM in experiment [6]. Further, the TGI in [7] was found to be 3.37 µM; in experiment [8], 0.853 µM; in experiment [9], 2.13 µM; in experiment [10], 0.346 µM.
In the case of `N=C(N)c1ccc(N=Nc2c(O)ccc3c2[nH]c2ccccc23)cc1`, the total growth inhibition concentration (TGI) in experiment [11] was 86.4 µM; in experiment [12] it was 99.4 µM; in experiment [13] it was greater than 100 µM; in experiment [14] it was greater than 100 µM; in experiment [15], greater than 39.6 µM; in experiment [16], 5.27 µM. For the same compound, the TGI in [17], in experiment [18], in [19] and in [20] was greater than 100 µM in each case.

(Values after PubChem BioAssay (NCI).)
